Measurements: patent US10039753B2, “Imidazo[4,5-c]quinoline and imidazo[4,5-c][1,5]naphthyridine derivatives as LRRK2 inhibitors” (Pfizer Inc., priority 2015, dated 2018)
Counter-ions that a name gives are not always drawn. Like-named read-outs stand apart in the source and are kept apart here.

Key:
mutant G2019S LRRK2 = mutant G2019S LRRK2 (Homo sapiens, UniProt Q5S007, G2019S); test: LRRK2 Assay, Format 1 (Lantha Screen), G2019S mutant
Source text: All final concentrations of substrate ATP and enzyme were the same.

[1] = target: T1, GST-tagged truncated LRRK2 (Homo sapiens, UniProt Q5S007); test: LRRK2 Assay, Format 1 (Lantha Screen), WT; type: biochemical
T1 construct: GST-tagged truncated LRRK2 from Invitrogen (Cat # PV4874); GST; purchased Invitrogen PV4874
Procedure: LRRK2 kinase activity was measured using Lantha Screen technology from Invitrogen. GST-tagged truncated LRRK2 from Invitrogen (Cat # PV4874) was incubated with a fluorescein-labeled peptide substrate based upon ezrin/radixin/moesin (ERM), also known as LRRKtide (Invitrogen cat # PR8976A), in the presence of a dose response of compound. Upon completion, the assay was stopped and detected with a terbium labeled anti-phospho-ERM antibody (Invitrogen, cat # PR8975A). […] Aliquots (3.5 μL) of the 100% DMSO dose response were mixed with 46.5 μL water then 1 μL of this mixture was added to the 3 μL substrate mix in the 384-well plate. The kinase reaction was started with 3 μL of a working solution of LRRK2 enzyme at a concentration of 4 μg/mL. […] The reaction was allowed to progress at room temperature for two hours and then stopped with the addition of 7 μL of detection buffer (20 mM Tris pH 7.6, 0.01% NP-40, 0.02% NaN3, 6 mM EDTA with 2 nM terbium labeled anti-phospho-ERM).

[2] = 100 nM LRRKtide, 50 μM ATP, 1.7 μg/mL LRRK2 enzyme, two hours at room temperature
[3] = Format 1, wild-type LRRK2, geometric mean of 2-4 determinations unless footnoted (a: ≥5 determinations; b: single determination; c: determined on trifluoroacetate salt)

Sequence of mutant G2019S LRRK2 (Q5S007 970-2527 G2019S limits assumed): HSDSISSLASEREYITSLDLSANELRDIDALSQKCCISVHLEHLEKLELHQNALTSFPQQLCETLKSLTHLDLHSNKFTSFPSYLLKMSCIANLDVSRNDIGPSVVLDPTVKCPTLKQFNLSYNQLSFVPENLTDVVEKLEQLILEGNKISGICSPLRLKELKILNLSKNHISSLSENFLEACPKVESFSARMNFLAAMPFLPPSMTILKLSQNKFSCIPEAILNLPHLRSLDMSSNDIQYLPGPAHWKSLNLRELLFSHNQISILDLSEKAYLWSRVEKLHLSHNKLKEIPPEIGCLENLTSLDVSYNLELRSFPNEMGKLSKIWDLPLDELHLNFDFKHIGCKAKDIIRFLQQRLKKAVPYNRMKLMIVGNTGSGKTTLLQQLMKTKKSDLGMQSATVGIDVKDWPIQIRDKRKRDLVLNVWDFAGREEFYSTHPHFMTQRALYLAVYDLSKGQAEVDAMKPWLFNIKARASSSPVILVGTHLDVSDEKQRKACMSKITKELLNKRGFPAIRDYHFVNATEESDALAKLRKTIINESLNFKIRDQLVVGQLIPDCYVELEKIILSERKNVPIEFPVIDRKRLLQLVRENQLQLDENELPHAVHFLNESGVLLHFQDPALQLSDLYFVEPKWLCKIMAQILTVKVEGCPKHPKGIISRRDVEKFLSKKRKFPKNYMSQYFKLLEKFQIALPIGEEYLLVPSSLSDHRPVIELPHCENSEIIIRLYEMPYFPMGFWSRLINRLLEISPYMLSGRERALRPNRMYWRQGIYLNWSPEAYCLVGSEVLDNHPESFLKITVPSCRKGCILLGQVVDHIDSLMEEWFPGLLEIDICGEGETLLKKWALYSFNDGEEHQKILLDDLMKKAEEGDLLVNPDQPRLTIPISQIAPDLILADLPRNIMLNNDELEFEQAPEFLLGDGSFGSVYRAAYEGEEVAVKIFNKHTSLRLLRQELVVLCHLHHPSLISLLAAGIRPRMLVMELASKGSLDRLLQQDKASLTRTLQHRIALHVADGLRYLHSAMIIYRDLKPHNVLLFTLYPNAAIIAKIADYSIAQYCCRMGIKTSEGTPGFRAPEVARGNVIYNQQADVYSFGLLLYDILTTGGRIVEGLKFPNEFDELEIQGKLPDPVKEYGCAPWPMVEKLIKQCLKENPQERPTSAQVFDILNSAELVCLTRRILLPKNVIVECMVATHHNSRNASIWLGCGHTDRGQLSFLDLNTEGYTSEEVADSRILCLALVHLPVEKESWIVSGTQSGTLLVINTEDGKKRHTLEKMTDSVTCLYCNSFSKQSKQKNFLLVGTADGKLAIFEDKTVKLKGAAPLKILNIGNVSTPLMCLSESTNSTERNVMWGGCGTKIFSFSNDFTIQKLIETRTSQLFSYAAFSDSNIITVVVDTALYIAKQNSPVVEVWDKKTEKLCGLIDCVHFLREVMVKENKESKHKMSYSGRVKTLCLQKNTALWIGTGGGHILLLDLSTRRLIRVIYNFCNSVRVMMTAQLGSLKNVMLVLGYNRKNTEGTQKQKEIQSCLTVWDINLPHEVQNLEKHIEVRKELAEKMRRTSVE
T1 sequence (Q5S007 970-2527 limits assumed): as the sequence (Q5S007 970-2527 G2019S limits assumed) above, with S1050G counted along it

Structure (SMILES)	IC50 (mutant G2019S LRRK2) [nM]	IC50 [1, 2] [nM]	IC50 [1, 3] [nM]	IC50 (mutant G2019S LRRK2; read-out: LRRK2, Format 1 G2019S IC50, Format 1, G2019S mutant LRRK2, geometric mean of 2-4 determinations unless footnoted (a: ≥5 determinations; b: single determination; c: determined on trifluoroacetate salt)) [nM]	LRRK2 potency compared to Example 5 (its enantiomer) ([1]; qualitative statement referring to Table 3 data)
COc1ccc2ncc3nc(Cc4ccon4)n([C@@H]4CCO[C@H](C)C4)c3c2c1 [Example 62, 8-methoxy-1-[(2R,4R)-2-methyltetrahydro-2H-pyran-4-yl]-2-(1,2-oxazol-3-ylmethyl)-1H-imidazo[4,5-c]quinoline]	12.8		41.9		
Cc1cn(Cc2nc3cnc4ccccc4c3n2C2CCOCC2)nn1 [Example 32, 2-[(4-methyl-1H-1,2,3-triazol-1-yl)methyl]-1-(tetrahydro-2H-pyran-4-yl)-1H-imidazo[4,5-c]quinoline]	121		98.6		
CC1(C)CC(n2c(Cc3ccon3)nc3cnc4ccc(F)cc4c32)CCO1 (stereo not drawn) [Example 84, 1-(2,2-dimethyltetrahydro-2H-pyran-4-yl)-8-fluoro-2-(1,2-oxazol-3-ylmethyl)-1H-imidazo[4,5-c]quinoline, trifluoroacetate salt]	24.9		31.4		
F[C@@H]1CC[C@H](n2c(Cc3ccon3)nc3cnc4ccc(Br)cc4c32)C1 [Example 25, 8-bromo-1-[(1S,3R)-3-fluorocyclopentyl]-2-(1,2-oxazol-3-ylmethyl)-1H-imidazo[4,5-c]quinoline, formate salt]	30.8		56.3		
COc1ccc2ncc3nc(Cc4cn5ncsc5n4)n([C@@H]4CCO[C@H](C)C4)c3c2c1 [Example 90, 2-(imidazo[2,1-b][1,3,4]thiadiazol-6-ylmethyl)-8-methoxy-1-[(2R,4R)-2-methyltetrahydro-2H-pyran-4-yl]-1H-imidazo[4,5-c]quinoline]	6.4		14.8		
COc1ccc2ncc3nc(Cc4noc(C)n4)n([C@@H]4CCO[C@H](C)C4)c3c2c1 [Example 87, 8-methoxy-2-[(5-methyl-1,2,4-oxadiazol-3-yl)methyl]-1-[(2R,4R)-2-methyltetrahydro-2H-pyran-4-yl]-1H-imidazo[4,5-c]quinoline]	38.8		111		
C[C@H]1C[C@@H](n2c(Cc3ccon3)nc3cnc4ccc(C#N)cc4c32)CCO1 (racemic) [Example 21, 1-(cis-2-methyltetrahydro-2H-pyran-4-yl)-2-(1,2-oxazol-3-ylmethyl)-1H-imidazo[4,5-c]quinoline-8-carbonitrile]	4.5		7.5		
c1ccc2c(c1)ncc1nc(Cc3noc4ccccc34)n(C3CCOCC3)c12 [Example 29, 2-(1,2-benzoxazol-3-ylmethyl)-1-(tetrahydro-2H-pyran-4-yl)-1H-imidazo[4,5-c]quinoline]	226		164		
C[C@H]1C[C@@H](n2c(Cc3cscn3)nc3cnc4ccc(Br)cc4c32)CCO1 (racemic) [Example 56, 8-bromo-1-(cis-2-methyltetrahydro-2H-pyran-4-yl)-2-(1,3-thiazol-4-ylmethyl)-1H-imidazo[4,5-c]quinoline]	5.2		10		
C[C@@H]1C[C@H](n2c(Cc3cscn3)nc3cnc4ccc(C#N)cc4c32)CCO1 [Example 57, 1-[(2R,4R)-2-methyltetrahydro-2H-pyran-4-yl]-2-(1,3-thiazol-4-ylmethyl)-1H-imidazo[4,5-c]quinoline-8-carbonitrile]	4		6.1		
CC1(C)CC(n2c(Cc3cn4ncsc4n3)nc3cnc4ccccc4c32)CCO1 (stereo not drawn) [Example 73, 1-(2,2-dimethyltetrahydro-2H-pyran-4-yl)-2-(imidazo[2,1-b][1,3,4]thiadiazol-6-ylmethyl)-1H-imidazo[4,5-c]quinoline, trifluoroacetate salt]	98.4		76.3		
C[C@@H]1C[C@H](n2c(Cc3cscn3)nc3c(N)nc4ccc(Cl)cc4c32)CCO1 [Example 85, 8-chloro-1-[(2R,4R)-2-methyltetrahydro-2H-pyran-4-yl]-2-(1,3-thiazol-4-ylmethyl)-1H-imidazo[4,5-c]quinolin-4-amine, trifluoroacetate salt]	10		12.3		
CC[C@H]1C[C@@H](n2c(Cc3ccon3)nc3cnc4ccc(C#N)cc4c32)CCO1 [enantiomer of Example 67, 1-[(2S,4S)-2-ethyltetrahydro-2H-pyran-4-yl]-2-(1,2-oxazol-3-ylmethyl)-1H-imidazo[4,5-c]quinoline-8-carbonitrile]	403	699			
c1ccc2c(c1)ncc1nc(Cc3cn4ncsc4n3)n(C3CCOCC3)c12 [Example 69, 2-(imidazo[2,1-b][1,3,4]thiadiazol-6-ylmethyl)-1-(tetrahydro-2H-pyran-4-yl)-1H-imidazo[4,5-c]quinoline]	82.4		78.2		
C[C@@H]1C[C@H](n2c(Cc3cscn3)nc3cnc4ccc(C#N)cc4c32)C[C@H](C)O1 [Example 61, 1-[(2R,4r,6S)-2,6-dimethyltetrahydro-2H-pyran-4-yl]-2-(1,3-thiazol-4-ylmethyl)-1H-imidazo[4,5-c]quinoline-8-carbonitrile]	67.9		181		
C[C@@H]1C[C@H](n2c(Cc3cscn3)nc3cnc4ccc(Cl)cc4c32)CCO1 [Example 10, 8-Chloro-1-[(2R,4R)-2-methyltetrahydro-2H-pyran-4-yl]-2-(1,3-thiazol-4-ylmethyl)(4-^2H)-1H-imidazo[4,5-c]quinoline]			5	3	
Fc1ccc2ncc3nc(Cn4cc5ccccc5n4)n(C4CCOCC4)c3c2c1 [Example 76, 8-fluoro-2-(2H-indazol-2-ylmethyl)-1-(tetrahydro-2H-pyran-4-yl)-1H-imidazo[4,5-c]quinoline, trifluoroacetate salt]	54.5		67.5		
COc1ccc(Cc2nc3cnc4ccc(F)cc4c3n2C2CCOC(C)(C)C2)nc1 (stereo not drawn) [Example 70, 1-(2,2-dimethyltetrahydro-2H-pyran-4-yl)-8-fluoro-2-[(5-methoxypyridin-2-yl)methyl]-1H-imidazo[4,5-c]quinoline]	66.5		77.7		
Cc1nc(Cc2nc3cnc4ccc(Cl)cc4c3n2[C@H]2CCO[C@@H](C)C2)no1 [Example 51, 8-chloro-2-[(5-methyl-1,2,4-oxadiazol-3-yl)methyl]-1-[(2S,4S)-2-methyltetrahydro-2H-pyran-4-yl]-1H-imidazo[4,5-c]quinoline]	49.3		109		significantly less potent

The remaining molecules from weak to strong by IC50 (mutant G2019S LRRK2), led by results:

IC50 (mutant G2019S LRRK2) [nM]	IC50 [1, 2] [nM]	IC50 [1, 3] [nM]	IC50 (mutant G2019S LRRK2; read-out: LRRK2, Format 1 G2019S IC50, Format 1, G2019S mutant LRRK2, geometric mean of 2-4 determinations unless footnoted (a: ≥5 determinations; b: single determination; c: determined on trifluoroacetate salt)) [nM]	LRRK2 potency compared to Example 5 (its enantiomer) ([1]; qualitative statement referring to Table 3 data)	Structure (SMILES)
508	1710				COc1ccc2ncc3nc(Cc4ccon4)n([C@H]4CCO[C@@H](C)C4)c3c2c1 [enantiomer of Example 62, 8-methoxy-1-[(2S,4S)-2-methyltetrahydro-2H-pyran-4-yl]-2-(1,2-oxazol-3-ylmethyl)-1H-imidazo[4,5-c]quinoline]
157		153			F[C@H]1CC[C@@H](n2c(Cc3nc4ccccc4o3)nc3cnc4ccccc4c32)C1 [Example 28, 2-(1,3-benzoxazol-2-ylmethyl)-1-[(1R,3S)-3-fluorocyclopentyl]-1H-imidazo[4,5-c]quinoline]
120		141			CC(C)(O)c1cn(Cc2nc3cnc4ccccc4c3n2C2CCOCC2)nn1 [Example 40, 2-(1-{[1-(tetrahydro-2H-pyran-4-yl)-1H-imidazo[4,5-c]quinolin-2-yl]methyl}-1H-1,2,3-triazol-4-yl)propan-2-ol]
115		145			Fc1ccc2ncc3nc(Cn4cc(C(F)(F)F)cn4)n(C4CCOCC4)c3c2c1 [Example 78, 8-fluoro-1-(tetrahydro-2H-pyran-4-yl)-2-{[4-(trifluoromethyl)-1H-pyrazol-1-yl]methyl}-1H-imidazo[4,5-c]quinoline, trifluoroacetate salt]
80.6		103			CC1(C)CC(n2c(Cc3ccon3)nc3cnc4ccccc4c32)CCO1 (stereo not drawn) [Example 47, 1-(2,2-dimethyltetrahydro-2H-pyran-4-yl)-2-(1,2-oxazol-3-ylmethyl)-1H-imidazo[4,5-c]quinoline]
57.7		127			c1ccc2c(c1)ncc1nc(Cc3ccon3)n(C3CCCCC3)c12 [Example 50, 1-cyclohexyl-2-(1,2-oxazol-3-ylmethyl)-1H-imidazo[4,5-c]quinoline]
55.5		81			Cc1nc2cnc3ccc(C#N)cc3c2n1[C@H]1CCO[C@@H](C)C1 (racemic) [Example 19, 2-methyl-1-(cis-2-methyltetrahydro-2H-pyran-4-yl)-1H-imidazo[4,5-c]quinoline-8-carbonitrile]
16.4		32.5			CC[C@H]1C[C@@H](n2c(Cc3ccon3)nc3cnc4ccc(Br)cc4c32)CCO1 (racemic) [Example 66, 8-bromo-1-(cis-2-ethyltetrahydro-2H-pyran-4-yl)-2-(1,2-oxazol-3-ylmethyl)-1H-imidazo[4,5-c]quinoline]
6.4		10.3			C[C@@H]1C[C@H](n2c(Cc3ncon3)nc3cnc4ccc(Cl)cc4c32)CCO1 [Example 13, 8-chloro-1-[(2R,4R)-2-methyltetrahydro-2H-pyran-4-yl]-2-(1,2,4-oxadiazol-3-ylmethyl)-1H-imidazo[4,5-c]quinoline]
